# Data reported in BindingDB's records for doi:10.1111/j.1747-0285.2012.01443.x (Pfizer, 2012).
# Target: Tyrosine-protein kinase SYK (Homo sapiens, UniProt P43405)
# Test: Syk Enzyme Assay
# Conditions: pH 7.4; 25 °C
# Text: A Lance TR-FRET assay (Perkin Elmer) was used to measure and compare the potency of compounds against Syk kinase domain.
compound,measurement,value
"COc1cc2nccc(Oc3ccc(NC(=O)N[C@@H]4C[C@H]4c4ccccc4)nc3)c2cc1OC [Dimethoxyquinoline, 1]",IC50,320 nM
